Assay type in all cases: functional
For experiment [1], the system named is Onchocerca lienalis. Kind of experiment: MMV: Percent motility assay at a compound concentration of 1.25e-5 M. Activity score legend: 3: Active, 2: Moderately active; 1: Inactive, 0: Toxic. The settings on record: at 12.5 µM.
In experiment [2] the test system is Onchocerca lienalis. Kind of experiment: MMV: Percent motility assay at a compound concentration of 3.1e-6 M. Activity score legend: 3: Active, 2: Moderately active; 1: Inactive, 0: Toxic. The settings on record: at 3.1 µM.
The test system of experiment [3] is Onchocerca lienalis. Kind of experiment: MMV: Percent motility assay at a compound concentration of 1.9e-7 M. Activity score legend: 3: Active, 2: Moderately active; 1: Inactive, 0: Toxic. The conditions noted are these: at 0.19 µM.
The subject of experiment [4] is Onchocerca lienalis. Kind of experiment: MMV: Percent motility assay at a compound concentration of 7.8e-7 M. Activity score legend: 3: Active, 2: Moderately active; 1: Inactive, 0: Toxic. The settings on record: at 0.78 µM.

Each structure is given as a SMILES string.

With `CCOc1cc(CNC(C)C(O)c2ccccc2)cc(Cl)c1OCC` (centres undefined), the Motility in the experiment on Onchocerca lienalis [1], in the experiment on Onchocerca lienalis [2], with Onchocerca lienalis [3] and with Onchocerca lienalis [4] was 100% each time.

As for `Cc1cc(NC(=O)c2cccc(C(F)(F)F)c2)n(-c2nc(-c3ccc4c(c3)OCO4)cs2)n1`, the Motility with Onchocerca lienalis [1], in the experiment with Onchocerca lienalis [2], in the experiment on Onchocerca lienalis [3] and in the experiment on Onchocerca lienalis [4] was 100% in each case.

For the compound `COc1cccc(C2(C)Nc3ccccc3-c3nc4ccccc4n32)c1` (centres undefined), the Motility with Onchocerca lienalis [1], in the experiment on Onchocerca lienalis [2], with Onchocerca lienalis [3] and with Onchocerca lienalis [4] was 100% in each case.

As for `CC(C)CNC(=O)c1c(N)n(CCc2ccccc2F)c2nc3ccccc3nc12`, the Motility with Onchocerca lienalis [1], with Onchocerca lienalis [2], in the experiment on Onchocerca lienalis [3] and in the experiment with Onchocerca lienalis [4] was 100% each time.

Turning to `Cc1cccc(-n2ncc3c(O)nc(-n4nc(C)cc4NC(=O)c4cc5ccccc5o4)nc32)c1`, the Motility in the experiment with Onchocerca lienalis [1] is 0%; in the experiment with Onchocerca lienalis [2], 100%; in the experiment with Onchocerca lienalis [3], 100%; in the experiment with Onchocerca lienalis [4], 100%.

For `Oc1ccccc1CN1CCC2(CCCN(Cc3ccccc3F)C2)C1` (centres undefined), the Motility with Onchocerca lienalis [1], with Onchocerca lienalis [2], with Onchocerca lienalis [3] and in the experiment on Onchocerca lienalis [4] was 100% throughout.

As to `Cc1ccc(-c2cc(C(=O)Nc3ccc(S(=O)(=O)N4CCCCC4)cc3)[nH]n2)c(O)c1`, the Motility with Onchocerca lienalis [1], with Onchocerca lienalis [2], with Onchocerca lienalis [3] and in the experiment on Onchocerca lienalis [4] was 100% each time.

Regarding `COCCNCC(O)Cn1c2ccc(Cl)cc2c2cc(Cl)ccc21` (centres undefined), the Motility with Onchocerca lienalis [1] is on record as 66.66%; in the experiment with Onchocerca lienalis [2], 100%; in the experiment on Onchocerca lienalis [3], 100%; in the experiment with Onchocerca lienalis [4], 100%.

`COc1ccc(N2CCN(C(CNC(=O)C3CCCCC3)c3ccc4c(c3)OCO4)CC2)cc1` (centres undefined): the Motility in the experiment on Onchocerca lienalis [1], with Onchocerca lienalis [2], in the experiment with Onchocerca lienalis [3] and with Onchocerca lienalis [4] was 100% in each case.

For the compound `O=C(NC1CCN(Cc2ccccc2)CC1)c1cc(-c2ccncc2)nc2ccc(Cl)cc12`, the Motility in the experiment on Onchocerca lienalis [1], in the experiment with Onchocerca lienalis [2], in the experiment on Onchocerca lienalis [3] and in the experiment on Onchocerca lienalis [4] was 100% throughout.

In the case of `COc1cc2cc(C(=O)Nc3ccccc3)c(N)nc2cc1OC`, the Motility with Onchocerca lienalis [1], with Onchocerca lienalis [2], with Onchocerca lienalis [3] and in the experiment with Onchocerca lienalis [4] was 100% throughout.

In the case of `Cc1[nH]c(-c2ccc(F)cc2)cc1C(=O)NC1CCN(Cc2ccccc2)CC1`, the Motility in the experiment on Onchocerca lienalis [1], with Onchocerca lienalis [2], in the experiment with Onchocerca lienalis [3] and in the experiment on Onchocerca lienalis [4] was 100% each time.

In the case of `O=C(O)C(=O)O.Oc1ccccc1CN1CCN(C(c2ccccc2)c2ccccc2)CC1`, the Motility in the experiment with Onchocerca lienalis [1], with Onchocerca lienalis [2], with Onchocerca lienalis [3] and in the experiment with Onchocerca lienalis [4] was 100% each time.

For the compound `O=C(NC1CCCC1)c1ccc(N2CCC(NCc3cccc(C(F)(F)F)c3)CC2)cc1`, the Motility in the experiment with Onchocerca lienalis [1], in the experiment on Onchocerca lienalis [2], with Onchocerca lienalis [3] and in the experiment with Onchocerca lienalis [4] was 100% in each case.

Take `CCOc1cc(Br)c(C(C)NC(=O)c2cccc(OC)c2)cc1OCC` (centres undefined): the Motility in the experiment on Onchocerca lienalis [1], in the experiment on Onchocerca lienalis [2], in the experiment on Onchocerca lienalis [3] and in the experiment with Onchocerca lienalis [4] was 100% in each case.

`CCN(CC)CCn1c(=N)n(CC(O)c2ccc(Cl)c(Cl)c2)c2ccccc21.Cl` (centres undefined): the Motility in the experiment on Onchocerca lienalis [1], in the experiment with Onchocerca lienalis [2], in the experiment on Onchocerca lienalis [3] and in the experiment on Onchocerca lienalis [4] was 100% in each case.

Consider `Cc1ccc(CSCc2ccc(C(=O)NC3CC3)o2)cc1`, for which the Motility in the experiment with Onchocerca lienalis [1], in the experiment on Onchocerca lienalis [2], in the experiment on Onchocerca lienalis [3] and in the experiment with Onchocerca lienalis [4] was 100% each time.

In the case of `CN1CCN(c2c3c(c(C#N)c4nc5ccccc5n24)CCC3)CC1`, the Motility in the experiment on Onchocerca lienalis [1], with Onchocerca lienalis [2], with Onchocerca lienalis [3] and in the experiment with Onchocerca lienalis [4] was 100% in each case.

On to `CCOc1ccc(C2N(C)c3ccccc3N2C)cc1`, for which the Motility with Onchocerca lienalis [1], with Onchocerca lienalis [2], in the experiment with Onchocerca lienalis [3] and with Onchocerca lienalis [4] was 100% throughout.

In the case of `CC(=O)NCCc1nc2ccccc2n1Cc1ccc(C(C)C)cc1`, the Motility in the experiment with Onchocerca lienalis [1], in the experiment with Onchocerca lienalis [2], in the experiment with Onchocerca lienalis [3] and in the experiment on Onchocerca lienalis [4] was 100% in each case.

For `COc1nc(Nc2ccc(C(C)C)cc2)nc(OC)n1`, the Motility in the experiment on Onchocerca lienalis [1], in the experiment with Onchocerca lienalis [2], in the experiment on Onchocerca lienalis [3] and in the experiment on Onchocerca lienalis [4] was 100% in each case.

Take `CCN(CC)CCNc1ncnc2c1[nH]c1ccc(Br)cc12`: the Motility in the experiment with Onchocerca lienalis [1], with Onchocerca lienalis [2], with Onchocerca lienalis [3] and in the experiment with Onchocerca lienalis [4] was 100% in each case.

`CCOc1cccc(C(=O)Nc2ccc(-c3nc4ccccc4[nH]3)cc2)c1`: the Motility with Onchocerca lienalis [1], in the experiment with Onchocerca lienalis [2], in the experiment with Onchocerca lienalis [3] and with Onchocerca lienalis [4] was 100% in each case.

As for `Cl.Clc1cc(Br)ccc1-c1ccc(CNCC2CCNCC2)o1`, the Motility in the experiment with Onchocerca lienalis [1], in the experiment on Onchocerca lienalis [2], in the experiment on Onchocerca lienalis [3] and in the experiment on Onchocerca lienalis [4] was 100% throughout.

As to `CC(C)(C)C(=O)Nc1ccc(C(=O)Nc2cccc(-c3nc4ccccc4[nH]3)c2)cc1`, the Motility in the experiment on Onchocerca lienalis [1], in the experiment with Onchocerca lienalis [2], with Onchocerca lienalis [3] and with Onchocerca lienalis [4] was 100% in each case.

For `COc1ccc(-c2nonc2NC(=O)c2cccc(C)c2)cc1OC`, the Motility in the experiment with Onchocerca lienalis [1], in the experiment with Onchocerca lienalis [2], in the experiment with Onchocerca lienalis [3] and with Onchocerca lienalis [4] was 100% each time.

Regarding `O=C(Nc1ccc(N2CCN(Cc3ccccc3)CC2)cc1)c1cccs1.O=C(O)C(F)(F)F`, the Motility in the experiment with Onchocerca lienalis [1], with Onchocerca lienalis [2], in the experiment on Onchocerca lienalis [3] and in the experiment on Onchocerca lienalis [4] was 100% in each case.

On to `O=C(Nc1ccc(N2CCCCC2)c(Cl)c1)c1ccc(Br)o1`, for which the Motility in the experiment with Onchocerca lienalis [1], in the experiment on Onchocerca lienalis [2], in the experiment on Onchocerca lienalis [3] and in the experiment on Onchocerca lienalis [4] was 100% throughout.

Regarding `CC(C)(C)c1ccc(C(=O)Nc2nc3ccccc3s2)cc1`, the Motility in the experiment with Onchocerca lienalis [1], with Onchocerca lienalis [2], in the experiment with Onchocerca lienalis [3] and in the experiment with Onchocerca lienalis [4] was 100% throughout.

In the case of `CC1CC(C)CN(C(=O)c2ccc(Cl)cc2Cl)C1` (centres undefined), the Motility with Onchocerca lienalis [1], in the experiment with Onchocerca lienalis [2], in the experiment on Onchocerca lienalis [3] and with Onchocerca lienalis [4] was 100% throughout.

With `COc1ccccc1CNC(=O)C1c2ccccc2C(=O)N(CC(C)C)C1c1cccs1` (centres undefined), the Motility in the experiment with Onchocerca lienalis [1], with Onchocerca lienalis [2], with Onchocerca lienalis [3] and with Onchocerca lienalis [4] was 100% throughout.

Take `OC(CNC1CCCC1)Cn1c2ccccc2c2ccccc21` (centres undefined): the Motility with Onchocerca lienalis [1], in the experiment with Onchocerca lienalis [2], in the experiment with Onchocerca lienalis [3] and in the experiment on Onchocerca lienalis [4] was 100% each time.

In the case of `COc1ccc(C2N(C)c3ccccc3N2C)cc1`, the Motility in the experiment on Onchocerca lienalis [1], in the experiment with Onchocerca lienalis [2], with Onchocerca lienalis [3] and in the experiment on Onchocerca lienalis [4] was 100% in each case.

In the case of `CC(C)OCc1cc(CN2CCN(c3cccc(Cl)c3)CC2)c(O)c2ncccc12`, the Motility in the experiment on Onchocerca lienalis [1] was determined as 0%; in the experiment with Onchocerca lienalis [2] it was 100%; in the experiment on Onchocerca lienalis [3], 100%; in the experiment on Onchocerca lienalis [4], 100%.

On to `O=C(Nc1ccc(F)c(Cl)c1)Nc1ccc(Cl)c(Cl)c1`, for which the Motility in the experiment on Onchocerca lienalis [1] came to 0%; in the experiment with Onchocerca lienalis [2], 100%; in the experiment on Onchocerca lienalis [3], 100%; in the experiment on Onchocerca lienalis [4] it was 100%.

`Clc1ccc2[nH]c3c(NCCCN4CCOCC4)ncnc3c2c1`: the Motility in the experiment with Onchocerca lienalis [1], in the experiment with Onchocerca lienalis [2], with Onchocerca lienalis [3] and in the experiment with Onchocerca lienalis [4] was 100% each time.

For `CCCN(CCC)CCCNC(=O)c1cc2c(-c3ccc(OC)c(OC)c3)nn(C)c2s1`, the Motility in the experiment with Onchocerca lienalis [1], in the experiment on Onchocerca lienalis [2], in the experiment with Onchocerca lienalis [3] and with Onchocerca lienalis [4] was 100% each time.

Turning to `Cc1cc(N2CCN(C3CCCC3)CC2)n2c(nc3ccccc32)c1C#N`, the Motility with Onchocerca lienalis [1], in the experiment on Onchocerca lienalis [2], in the experiment with Onchocerca lienalis [3] and in the experiment with Onchocerca lienalis [4] was 100% throughout.

As for `O=C(NCC1Cc2cccc(-c3ccncc3)c2O1)c1csc2c1CCCC2` (centres undefined), the Motility with Onchocerca lienalis [1], in the experiment with Onchocerca lienalis [2], in the experiment with Onchocerca lienalis [3] and in the experiment with Onchocerca lienalis [4] was 100% each time.

Turning to `CCc1ccc(Nc2cc(C)nc3nc(C)nn23)cc1`, the Motility in the experiment with Onchocerca lienalis [1], in the experiment with Onchocerca lienalis [2], with Onchocerca lienalis [3] and in the experiment with Onchocerca lienalis [4] was 100% throughout.

Take `C=CCc1c(C)nc2ccccc2c1O`: the Motility with Onchocerca lienalis [1], with Onchocerca lienalis [2], in the experiment with Onchocerca lienalis [3] and in the experiment with Onchocerca lienalis [4] was 100% each time.

The record behind these values is ChEMBL document CHEMBL3137381, “MMV Box Onchocerca lienalis screening set”.
